Key:
Experiment in all cases: relative viability (nuclei count vs DMSO), 5 days (fraction); higher = more cells survive
[1] = compound: N[C@@H]1CCCN(c2c(/C=C3\SC(=O)NC3=O)cccc2-c2ccccc2)C1 [AZD1208] + NC(=O)Nc1cc(-c2cccc(F)c2)sc1C(=O)N[C@H]1CCCNC1 [AZD7762] (partner 0.2 µM)
Summary of the method: (§1)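 Each reported value is a median over duplicate plates. It expresses relative viability: treated-well nuclei count divided by vehicle-well nuclei count. Lung cancer cell lines in 1536-well plates were dosed by pin tool a day after seeding, alone with one drug or with a fixed anchor-drug dose plus five library-drug doses (not always all listed) in √10 steps, and nuclei were counted after 5 days.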

[2] = compound: N[C@@H]1CCCN(c2c(/C=C3\SC(=O)NC3=O)cccc2-c2ccccc2)C1 [AZD1208] + CS(=O)(=O)N1CCN(Cc2cc3nc(-c4cccc5[nH]ncc45)nc(N4CCOCC4)c3s2)CC1 [Pictilisib] (partner 1 µM)
Summary of the method: as §1

[3] = compound: CN1CCN(CC1)C2=CC(=C(C=C2)NC3=NC(=C(S3)C(=O)C4=C(C=CC=C4Cl)Cl)N)OC [XMD14-99] + O=C(c1cc(Cc2n[nH]c(=O)c3ccccc23)ccc1F)N1CCN(C(=O)C2CC2)CC1 [Olaparib] (partner 8 µM)
Summary of the method: as §1

[4] = compound: CN1CCN(CC1)C2=CC(=C(C=C2)NC3=NC(=C(S3)C(=O)C4=C(C=CC=C4Cl)Cl)N)OC [XMD14-99] + CCNC(=O)c1noc(-c2cc(C(C)C)c(O)cc2O)c1-c1ccc(CN2CCOCC2)cc1 [Luminespib] (partner 0.01 µM)
Summary of the method: as §1

In the case of NCI-H1755, the relative viability ([1]; first compound 0.08 µM) is reported as 0.509, the relative viability ([1]; first compound 0.253 µM) is reported as 0.577 and the relative viability ([1]; first compound 0.8 µM) is reported as 0.455. It also gave a relative viability ([1]; first compound 2.53 µM) of 0.446, a relative viability ([1]; first compound 8 µM) of 0.448 and a relative viability ([2]; first compound 0.08 µM) of 0.377. The relative viability ([2]; first compound 0.253 µM) was 0.441, the relative viability ([2]; first compound 0.8 µM) was 0.368 and the relative viability ([2]; first compound 2.53 µM) was 0.326. The relative viability ([2]; first compound 8 µM) was 0.283, the relative viability ([3]; first compound 0.08 µM) was 0.888 and the relative viability ([3]; first compound 0.8 µM) was 0.815. The relative viability ([3]; first compound 2.53 µM) was 0.835, the relative viability ([3]; first compound 8 µM) was 0.622 and the relative viability ([4]; first compound 0.08 µM) was 0.464. For the same cell line, the relative viability ([4]; first compound 0.8 µM) was 0.396, the relative viability ([4]; first compound 2.53 µM) was 0.305 and the relative viability ([4]; first compound 8 µM) was 0.369.

With HCC-78 the relative viability ([1]; first compound 0.08 µM) was 0.737, the relative viability ([1]; first compound 0.253 µM) was 0.758 and the relative viability ([1]; first compound 0.8 µM) was 0.643. It also gave a relative viability ([1]; first compound 2.53 µM) of 0.739, a relative viability ([1]; first compound 8 µM) of 0.793 and a relative viability ([2]; first compound 0.08 µM) of 0.205. The relative viability ([2]; first compound 0.253 µM) was 0.206, the relative viability ([2]; first compound 0.8 µM) was 0.198 and the relative viability ([2]; first compound 2.53 µM) was 0.195. The relative viability ([2]; first compound 8 µM) was 0.205, the relative viability ([3]; first compound 0.08 µM) was 0.716 and the relative viability ([3]; first compound 0.8 µM) was 0.799. It also gave a relative viability ([3]; first compound 2.53 µM) of 0.724 and a relative viability ([3]; first compound 8 µM) of 0.589.

In the case of IA-LM, the relative viability ([2]; first compound 0.08 µM) is reported as 0.256, the relative viability ([2]; first compound 0.253 µM) is reported as 0.326 and the relative viability ([2]; first compound 0.8 µM) is reported as 0.292. The relative viability ([2]; first compound 2.53 µM) was 0.231, the relative viability ([2]; first compound 8 µM) was 0.308 and the relative viability ([3]; first compound 0.08 µM) was 0.943. It also gave a relative viability ([3]; first compound 0.8 µM) of 0.691, a relative viability ([3]; first compound 2.53 µM) of 0.68 and a relative viability ([3]; first compound 8 µM) of 0.352.

NCI-H441 was tested, and the relative viability ([1]; first compound 0.08 µM) was 1.12, the relative viability ([1]; first compound 0.253 µM) was 1.16 and the relative viability ([1]; first compound 0.8 µM) was 0.936. For the same cell line, the relative viability ([1]; first compound 2.53 µM) was 1.21, the relative viability ([1]; first compound 8 µM) was 1.16 and the relative viability ([2]; first compound 0.08 µM) was 0.343. The relative viability ([2]; first compound 0.253 µM) was 0.427, the relative viability ([2]; first compound 0.8 µM) was 0.34 and the relative viability ([2]; first compound 2.53 µM) was 0.314. For the same cell line, the relative viability ([2]; first compound 8 µM) was 0.305, the relative viability ([3]; first compound 0.08 µM) was 0.526 and the relative viability ([3]; first compound 0.8 µM) was 0.519. For the same cell line, the relative viability ([3]; first compound 2.53 µM) was 0.529, the relative viability ([3]; first compound 8 µM) was 0.455 and the relative viability ([4]; first compound 0.08 µM) was 0.351. For the same cell line, the relative viability ([4]; first compound 0.8 µM) was 0.352, the relative viability ([4]; first compound 2.53 µM) was 0.311 and the relative viability ([4]; first compound 8 µM) was 0.276.

NCI-H322M gave a relative viability ([1]; first compound 0.08 µM) of 0.627, a relative viability ([1]; first compound 0.253 µM) of 0.545 and a relative viability ([1]; first compound 2.53 µM) of 0.53. For the same cell line, the relative viability ([1]; first compound 8 µM) was 0.552, the relative viability ([2]; first compound 0.08 µM) was 0.494 and the relative viability ([2]; first compound 0.253 µM) was 0.466. It also gave a relative viability ([2]; first compound 0.8 µM) of 0.463, a relative viability ([2]; first compound 2.53 µM) of 0.474 and a relative viability ([2]; first compound 8 µM) of 0.547. For the same cell line, the relative viability ([3]; first compound 0.08 µM) was 0.807, the relative viability ([3]; first compound 0.8 µM) was 0.8 and the relative viability ([3]; first compound 2.53 µM) was 0.75. The relative viability ([3]; first compound 8 µM) was 0.617, the relative viability ([4]; first compound 0.08 µM) was 0.857 and the relative viability ([4]; first compound 0.8 µM) was 1.06. For the same cell line, the relative viability ([4]; first compound 2.53 µM) was 0.939 and the relative viability ([4]; first compound 8 µM) was 0.863.

In the case of NCI-H1993, the relative viability ([1]; first compound 0.08 µM) is reported as 0.679, the relative viability ([1]; first compound 0.253 µM) is reported as 0.654 and the relative viability ([1]; first compound 0.8 µM) is reported as 0.629. For the same cell line, the relative viability ([1]; first compound 2.53 µM) was 0.757, the relative viability ([1]; first compound 8 µM) was 0.579 and the relative viability ([2]; first compound 0.253 µM) was 0.878. For the same cell line, the relative viability ([2]; first compound 0.8 µM) was 0.692, the relative viability ([2]; first compound 2.53 µM) was 0.807 and the relative viability ([2]; first compound 8 µM) was 0.869. For the same cell line, the relative viability ([3]; first compound 0.08 µM) was 1.11, the relative viability ([3]; first compound 0.8 µM) was 0.942 and the relative viability ([3]; first compound 2.53 µM) was 0.943. The relative viability ([3]; first compound 8 µM) was 0.793, the relative viability ([4]; first compound 0.08 µM) was 0.849 and the relative viability ([4]; first compound 0.8 µM) was 0.761. For the same cell line, the relative viability ([4]; first compound 2.53 µM) was 0.782 and the relative viability ([4]; first compound 8 µM) was 0.632.

In the case of COR-L23, the relative viability ([2]; first compound 0.08 µM) is reported as 0.738, the relative viability ([2]; first compound 0.253 µM) is reported as 0.87 and the relative viability ([2]; first compound 0.8 µM) is reported as 0.725. It also gave a relative viability ([2]; first compound 2.53 µM) of 0.693, a relative viability ([2]; first compound 8 µM) of 0.75 and a relative viability ([3]; first compound 0.08 µM) of 0.345. It also gave a relative viability ([3]; first compound 0.8 µM) of 0.298, a relative viability ([3]; first compound 2.53 µM) of 0.298 and a relative viability ([3]; first compound 8 µM) of 0.193. It also gave a relative viability ([4]; first compound 0.08 µM) of 0.578, a relative viability ([4]; first compound 0.8 µM) of 0.613 and a relative viability ([4]; first compound 2.53 µM) of 0.515. The relative viability ([4]; first compound 8 µM) was 0.419.

With COR-L 105 the relative viability ([2]; first compound 0.08 µM) was 0.369, the relative viability ([2]; first compound 0.253 µM) was 0.3 and the relative viability ([2]; first compound 0.8 µM) was 0.353. The relative viability ([2]; first compound 2.53 µM) was 0.366, the relative viability ([2]; first compound 8 µM) was 0.451 and the relative viability ([3]; first compound 0.08 µM) was 0.657. The relative viability ([3]; first compound 0.8 µM) was 0.699, the relative viability ([3]; first compound 2.53 µM) was 0.682 and the relative viability ([3]; first compound 8 µM) was 0.621. For the same cell line, the relative viability ([4]; first compound 0.08 µM) was 0.693, the relative viability ([4]; first compound 0.8 µM) was 0.845 and the relative viability ([4]; first compound 2.53 µM) was 0.778. The relative viability ([4]; first compound 8 µM) was 0.466.

SK-LU-1 showed a relative viability ([2]; first compound 0.08 µM) of 0.459, a relative viability ([2]; first compound 0.253 µM) of 0.607 and a relative viability ([2]; first compound 0.8 µM) of 0.532. For the same cell line, the relative viability ([2]; first compound 2.53 µM) was 0.567, the relative viability ([2]; first compound 8 µM) was 0.431 and the relative viability ([3]; first compound 0.08 µM) was 0.423. The relative viability ([3]; first compound 0.8 µM) was 0.459, the relative viability ([3]; first compound 2.53 µM) was 0.374 and the relative viability ([3]; first compound 8 µM) was 0.34. For the same cell line, the relative viability ([4]; first compound 0.08 µM) was 0.197, the relative viability ([4]; first compound 0.8 µM) was 0.201 and the relative viability ([4]; first compound 2.53 µM) was 0.235. For the same cell line, the relative viability ([4]; first compound 8 µM) was 0.184.

NCI-H661 was tested, and the relative viability ([2]; first compound 0.08 µM) was 0.417, the relative viability ([2]; first compound 0.253 µM) was 0.391 and the relative viability ([2]; first compound 0.8 µM) was 0.34. For the same cell line, the relative viability ([2]; first compound 2.53 µM) was 0.342, the relative viability ([2]; first compound 8 µM) was 0.355 and the relative viability ([3]; first compound 0.08 µM) was 0.684. It also gave a relative viability ([3]; first compound 0.8 µM) of 0.663, a relative viability ([3]; first compound 2.53 µM) of 0.619 and a relative viability ([3]; first compound 8 µM) of 0.485. It also gave a relative viability ([4]; first compound 0.08 µM) of 0.855, a relative viability ([4]; first compound 0.8 µM) of 0.778 and a relative viability ([4]; first compound 2.53 µM) of 0.697. It also gave a relative viability ([4]; first compound 8 µM) of 0.55.

NCI-H2228 gave a relative viability ([2]; first compound 0.08 µM) of 0.207, a relative viability ([2]; first compound 0.253 µM) of 0.328 and a relative viability ([2]; first compound 0.8 µM) of 0.381. The relative viability ([2]; first compound 8 µM) was 0.285, the relative viability ([3]; first compound 0.08 µM) was 0.776 and the relative viability ([3]; first compound 0.8 µM) was 0.603. It also gave a relative viability ([3]; first compound 2.53 µM) of 0.706, a relative viability ([3]; first compound 8 µM) of 0.273 and a relative viability ([4]; first compound 0.08 µM) of 0.147. The relative viability ([4]; first compound 0.8 µM) was 0.19, the relative viability ([4]; first compound 2.53 µM) was 0.153 and the relative viability ([4]; first compound 8 µM) was 0.104.

Reference: the supplement of paper PMC10307832
